Measured values: the NIST ThermoML archive (doi:10.1016/j.jct.2017.07.011)

Experiment: xn = mol fraction of the nth substance listed
Settings: 100 kPa, Liquid, Vibrating tube method

CCCC(C)O (stereo unspecified) [pentan-2-ol] + O
mass density [kg/m3]
Settings	x1 = 0.00105	x1 = 0.0021	x1 = 0.00413	x1 = 0.00599	x1 = 0.00677	x1 = 0.00857	x1 = 1
273.65 K	999.095	998.354	997.02	995.922	995.484	994.604	824
274.15 K	999.119	998.377	997.038	995.939	995.499	994.61	823.6
274.65 K	999.148	998.4	997.057	995.957	995.51	994.622	823.2
275.15 K	999.16	998.416	997.073	995.965	995.523	994.625	822.8
275.65 K	999.177	998.43	997.08	995.972	995.524	994.627	822.5
276.15 K	999.187	998.44	997.09	995.972	995.527	994.622	822.1
276.65 K	999.193	998.445	997.092	995.974	995.524	994.619	821.7
277.15 K	999.185	998.444	997.082	995.964	995.512	994.604	821.3
277.65 K	999.19	998.439	997.076	995.952	995.498	994.583	820.9
278.15 K	999.187	998.426	997.066	995.938	995.484	994.566	820.6
278.65 K	999.177	998.416	997.053	995.923	995.466	994.542	820.2
279.15 K	999.163	998.401	997.037	995.898	995.439	994.519	819.8
279.65 K	999.133	998.376	997.002	995.867	995.403	994.471	819.4
280.15 K	999.115	998.36	996.978	995.84	995.375	994.439	819.1
280.65 K	999.09	998.332	996.951	995.806	995.342	994.408	818.7
281.15 K	999.058	998.301	996.915	995.769	995.301	994.365	818.3
281.65 K	999.025	998.267	996.878	995.731	995.261	994.318	817.9
282.15 K	998.992	998.234	996.841	995.688	995.214	994.273	817.5
